Reference: article PMC4367813 (Current medicinal chemistry, 2012)
Like-named read-outs stand apart in the source and are kept apart here. One block for each molecule: values may come before it. Residues, ends and D or L forms follow the SMILES beside them. *: point of attachment. Cbz = O=C(OCc1ccccc1)*

How the values were obtained:
[1] = target: T1, carboxypeptidase M (CPM) (Homo sapiens, UniProt P14384); test: Specificity: carboxypeptidase M inhibition; assay type: biochemical; settings: Table 5, NE = no effect
T1 sequence (P14384 18-443): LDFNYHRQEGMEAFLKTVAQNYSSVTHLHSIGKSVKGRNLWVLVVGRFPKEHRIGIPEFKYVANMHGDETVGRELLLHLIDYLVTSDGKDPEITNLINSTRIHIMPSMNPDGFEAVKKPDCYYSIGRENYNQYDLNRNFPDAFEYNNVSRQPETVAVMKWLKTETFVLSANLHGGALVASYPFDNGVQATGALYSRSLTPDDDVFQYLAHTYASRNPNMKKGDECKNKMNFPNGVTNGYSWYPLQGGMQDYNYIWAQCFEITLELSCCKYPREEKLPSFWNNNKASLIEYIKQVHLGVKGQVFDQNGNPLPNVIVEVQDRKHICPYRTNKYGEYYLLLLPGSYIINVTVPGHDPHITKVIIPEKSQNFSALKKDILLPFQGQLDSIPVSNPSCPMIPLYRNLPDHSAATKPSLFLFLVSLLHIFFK

[2] = target: T2, carboxypeptidase A (CPA) (Bos taurus, UniProt P00730); test: Specificity: carboxypeptidase A inhibition; assay type: biochemical
T2 sequence (P00730 111-419): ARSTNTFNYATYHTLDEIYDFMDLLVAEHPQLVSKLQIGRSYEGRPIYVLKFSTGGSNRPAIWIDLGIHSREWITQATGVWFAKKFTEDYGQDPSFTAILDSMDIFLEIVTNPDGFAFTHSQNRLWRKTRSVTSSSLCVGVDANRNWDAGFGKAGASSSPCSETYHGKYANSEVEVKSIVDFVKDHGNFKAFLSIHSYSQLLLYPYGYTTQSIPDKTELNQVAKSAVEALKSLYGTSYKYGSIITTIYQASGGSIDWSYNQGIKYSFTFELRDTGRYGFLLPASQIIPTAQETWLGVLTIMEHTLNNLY

[3] = tested on: NO formation on HPAEC; test: PRCP-induced nitric oxide formation on HPAEC; assay type: cell-based, human; settings: HPAEC with HK/PK complexes, 100 µM
[4] = tested on: food intake in mice; settings: fasted mice
[5] = target: T3, carboxypeptidase B (CPB) (Sus scrofa, UniProt P09955); test: Specificity: carboxypeptidase B inhibition; assay type: biochemical; settings: Table 5, NE = no effect
T3 sequence (P09955 111-416): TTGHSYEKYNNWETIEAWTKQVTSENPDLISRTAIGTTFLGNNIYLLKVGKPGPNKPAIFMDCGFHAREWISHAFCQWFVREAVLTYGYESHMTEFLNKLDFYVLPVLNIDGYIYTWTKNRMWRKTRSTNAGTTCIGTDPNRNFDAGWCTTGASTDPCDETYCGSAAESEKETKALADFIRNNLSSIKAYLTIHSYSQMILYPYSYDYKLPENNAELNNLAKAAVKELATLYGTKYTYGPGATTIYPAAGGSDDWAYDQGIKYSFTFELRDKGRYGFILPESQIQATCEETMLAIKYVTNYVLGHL

[6] = target: T4, carboxypeptidase N (hCPN, partially purified from plasma) (Homo sapiens, UniProt P15169); test: Specificity: carboxypeptidase N inhibition; assay type: biochemical; settings: Table 5, NE = no effect
T4 sequence (P15169 21-458): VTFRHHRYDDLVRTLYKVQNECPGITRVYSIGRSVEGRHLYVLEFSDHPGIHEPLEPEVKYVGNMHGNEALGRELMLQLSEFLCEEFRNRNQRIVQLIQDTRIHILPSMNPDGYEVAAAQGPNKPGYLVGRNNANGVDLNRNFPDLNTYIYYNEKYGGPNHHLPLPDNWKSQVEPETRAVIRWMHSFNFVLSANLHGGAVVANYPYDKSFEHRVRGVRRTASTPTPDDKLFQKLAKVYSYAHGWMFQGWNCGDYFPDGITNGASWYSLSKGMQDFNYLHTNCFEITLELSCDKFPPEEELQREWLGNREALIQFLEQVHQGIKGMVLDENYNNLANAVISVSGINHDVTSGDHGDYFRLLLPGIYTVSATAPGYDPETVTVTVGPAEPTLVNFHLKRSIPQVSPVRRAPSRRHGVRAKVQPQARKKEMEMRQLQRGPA
T4 sequence (P22792 22-545 partner): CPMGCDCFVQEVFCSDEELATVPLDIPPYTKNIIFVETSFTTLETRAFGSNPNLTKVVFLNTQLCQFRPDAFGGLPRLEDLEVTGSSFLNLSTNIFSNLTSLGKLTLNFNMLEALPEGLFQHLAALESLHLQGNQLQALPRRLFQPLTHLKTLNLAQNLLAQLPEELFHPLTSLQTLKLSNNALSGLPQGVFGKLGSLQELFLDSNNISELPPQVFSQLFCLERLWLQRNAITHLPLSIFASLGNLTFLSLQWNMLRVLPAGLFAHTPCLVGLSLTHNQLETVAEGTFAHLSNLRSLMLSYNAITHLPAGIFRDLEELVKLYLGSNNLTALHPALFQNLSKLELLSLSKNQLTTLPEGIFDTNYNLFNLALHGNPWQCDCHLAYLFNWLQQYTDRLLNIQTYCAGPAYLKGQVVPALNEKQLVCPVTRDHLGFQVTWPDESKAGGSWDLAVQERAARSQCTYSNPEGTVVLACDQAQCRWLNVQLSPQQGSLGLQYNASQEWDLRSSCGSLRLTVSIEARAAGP

[7] = Metabolic panel
[8] = tested on: PGI2 (6-keto prostaglandin F1α) release from HPAEC; test: PRCP-induced 6-keto prostaglandin F1α release from HPAEC; assay type: cell-based, human; settings: HPAEC with HK/PK complexes, 100 µM
[9] = tested on: PRCP; settings: read-out: PRCP IC50, cited from earlier work
[10] = target: PRCP-dependent prekallikrein (PK) activation on HPAEC; test: PRCP-dependent PK activation on HPAEC; assay type: cell-based, human; settings: 20 nM HK, 20 nM PK; NE = no effect
[11] = target: T5, recombinant PRCP (rPRCP) (Homo sapiens, UniProt P42785); test: rPRCP activity, cleavage of chromogenic substrate APpNA; assay type: biochemical; settings: 1 mM APpNA, 60 min; NE = no effect
T5 sequence (P42785 46-496): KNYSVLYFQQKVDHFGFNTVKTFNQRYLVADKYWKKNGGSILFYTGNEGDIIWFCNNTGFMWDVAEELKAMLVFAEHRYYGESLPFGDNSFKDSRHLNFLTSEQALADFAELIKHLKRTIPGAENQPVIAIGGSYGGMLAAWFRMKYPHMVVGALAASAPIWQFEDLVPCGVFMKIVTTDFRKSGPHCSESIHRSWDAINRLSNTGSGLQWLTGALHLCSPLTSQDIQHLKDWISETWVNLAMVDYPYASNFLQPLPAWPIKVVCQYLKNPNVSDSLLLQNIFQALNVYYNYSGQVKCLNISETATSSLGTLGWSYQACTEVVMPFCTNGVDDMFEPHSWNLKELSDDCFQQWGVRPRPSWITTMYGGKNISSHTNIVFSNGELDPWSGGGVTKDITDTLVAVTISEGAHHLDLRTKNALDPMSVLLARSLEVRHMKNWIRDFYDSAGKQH

[12] = mice, Compound 3 (400 µM), within 8 hours of administration

Ki ([1]; Ki CPM): 394 µM
Ki [2]: 486 µM
Compound: c1cnc2c(c1)ccc1cccnc12 [1,10-Phenanthroline, 1,10-phenanthroline, reference compound]

Compound: CCCCCCCCCCCCNC(=O)[C@@H]1CCCN1C(=O)[C@@H]1CCCN1 [Compound 3, (S)-N-dodecyl-1-((S)-pyrrolidine-2-carbonyl) pyrrolidine-2-carboxamide]
reduction of NO production [3]: 80%
food intake ([4]; 1 mg/kg ip, 1-24 h): lower food intake, although the reduction was not significant at 2, 4, 8, or 24 h
food intake ([4]; 10 mg/kg ip, all time intervals 1-24 h, P < 0.05 vs saline): Significant declines in food intake
time at which attenuation of food intake started ([4]; ip): ≤ 1 h
Ki CPM [1]: did not inhibit
Ki ([1]; read-out: Ki CPM): > 1000 µM
Ki CPB [5]: not inhibited
Ki ([5]; read-out: Ki CPB): > 1000 µM
Ki CPN [6]: did not inhibit
Ki ([6]; read-out: Ki CPN): > 1000 µM
Ki CPA ([2]; Table 5, NE = no effect): not inhibited
Ki ([2]; read-out: Ki CPA, Table 5, NE = no effect): > 1000 µM
ALB [7, 12]: 3.9
ALP [7, 12]: 93
ALT [7, 12]: 33
AMY [7, 12]: 1041
BUN [7, 12]: 19
CRE [7, 12]: 0.3
Ca^2+ [7, 12]: 9.9
GLOB [7, 12]: 1.5
GLU [7, 12]: 165
K+ [7, 12]: 5.4
Na+ [7, 12]: 151
PHOS [7, 12]: 8.0
TBIL [7, 12]: 0.4
TP [7, 12]: 5.3
changes in electrolyte levels, or markers of kidney and liver function ([7]; mice, within 8 hours of administration): did not cause significant changes
decrease in blood glucose levels ([7]; treated mice, n=3, P = 0.26): 15%
reduction of PGI2 production [8]: 80%

Compound: O=C[C@@H]1CCCN1C(=O)[C@@H]1CCCN1C(=O)OCc1ccccc1 (Cbz-Pro-Pro-aldehyde)
IC50 [9]: > 1000 µM

PRCP-Dependent PK Activation on HPAEC Ki [10]: little effect
rPRCP Ki [11]: little effect
Compound: O=C[C@@H]1CCCN1C(=O)[C@@H]1CCCN1C(=O)OCc1ccccc1 [z-Pro-Prolinal, 1-[1-(benzyloxycarbonyl)-L-prolyl] prolinal] (Cbz-Pro-Pro-aldehyde)
IC50 ([9]; listed as Z-Pro-Pro-OH): > 2000 µM
